Measured values published in publication PMC5658448, “From receptor binding kinetics to signal transduction; a missing link in predicting in vivo drug-action” (Scientific Reports, 2017).
Like-named read-outs stand apart in the source and are kept apart here.

Experiments:
[1] = molecular target: human neurokinin 1 receptor (Homo sapiens, UniProt P25103); test: Real-time cAMP accumulation assay (GloSensor) in CHOhNK1 cells; assay type: cell-based; settings: for type of antagonism (insurmountability): antagonist pre-incubation before SP or NKA, cAMP and morphology assays; for decrease of onset of NKA-induced cAMP production: antagonist pretreatment
human neurokinin 1 receptor, sequence (P25103 whole entry): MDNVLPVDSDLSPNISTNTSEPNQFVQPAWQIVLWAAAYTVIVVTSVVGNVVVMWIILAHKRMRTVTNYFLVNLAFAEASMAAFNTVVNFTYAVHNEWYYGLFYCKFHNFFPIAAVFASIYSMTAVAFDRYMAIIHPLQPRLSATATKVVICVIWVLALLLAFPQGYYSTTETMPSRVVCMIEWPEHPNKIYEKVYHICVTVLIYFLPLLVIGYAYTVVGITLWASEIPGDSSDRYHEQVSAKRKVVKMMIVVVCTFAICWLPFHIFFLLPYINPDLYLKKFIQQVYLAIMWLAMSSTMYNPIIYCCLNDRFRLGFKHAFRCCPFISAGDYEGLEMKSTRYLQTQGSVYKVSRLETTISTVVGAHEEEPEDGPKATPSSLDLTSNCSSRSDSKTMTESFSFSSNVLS
Description: Real-time cAMP production was measured using the life cell cAMP GloSensor^TM assay[11],[12]. The technology is based on a cAMP-biosensor, which undergoes a conformational change upon cAMP binding, followed by the turnover of Luciferin.
CHOhNK1 cells were transiently transfected with the pGloSensor™-22F cAMP (6 ng/µL) plasmid using FuGene HD (3 µL:1 µg DNA plasmid) as a transfection reagent. Accordingly, cells were harvested and reconstituted to 0.5 × 10^6 cells/ml (10,000 cells/well) in DMEM/F-12/ HEPES supplemented with 1% FCS, 2 mM glutamine and 1 mg/ml G418. The diluted plasmid solution was combined with the transfection reagent and incubated for 20 min at room temperature. Subsequently, the transfection mixture and cell solution were mixed for additional 5 min before plating in 384-well plates. The transfected cells were incubated for 24 h at 37 °C + 5% CO2 followed by treatment with Glo-substrate (3% v/v) for 2 h at room temperature. […] Real-time changes in the level of cAMP were detected using an Envision HTS microplate reader 2103 (PerkinElmer).
(§1) The onset of receptor activation was analyzed by calculating the slope with linear regression of the first 8 minutes of the cellular response.2 onset=Δcellularresponse/Δtime

NK1 receptor [2] = molecular target: T1, NK1 receptor (Homo sapiens, UniProt P25103); test: Impedance-based morphology assay (xCELLigence) in U-251 MG cells; assay type: cell-based; parameters: host or cells: U-251 MG cells; settings: for Onset of receptor activation, morphology, NKA / Onset of receptor activation, morphology, SP / decrease of onset of NKA-induced morphological changes / decrease of onset of SP-induced impedance changes: first 8 min; for decrease of onset of NKA-induced morphological changes / decrease of onset of SP-induced impedance changes: antagonist pretreatment; for increase of EC50 value of NKA: xCELLigence, highest antagonist concentration; for IC50: antagonist pre-incubation
T1 sequence (P25103 whole entry): as above
Description: Label-free morphology assays were performed using the xCELLigence RTCA system as described previously[27],[42].
as §1

NK1 receptor [3] = molecular target: T1, NK1 receptor; parameters: host or cells: U-251 MG cells; settings: room temperature; cited from earlier work
NK1 receptor [4] = molecular target: T1, NK1 receptor; parameters: host or cells: U-251 MG cells; settings: cited from earlier work
NK1 receptor [5] = molecular target: T1, NK1 receptor; parameters: host or cells: U-251 MG cells; settings: agonist alone; normalized to NKA only; cited from earlier work
NK1 receptor [6] = molecular target: T1, NK1 receptor; test: Radioligand binding affinity at the NK1 receptor ([3H][Sar9,Met(O2)11]SP, CHOhNK1 membranes)
NK1 receptor [7] = molecular target: T1, NK1 receptor; test: Dual-point competition association assay (kinetic rate index); assay type: binding; settings: 4 °C; Bt1 (30 min)/Bt2 (120 min); vs radioligand [3H][Sar9,Met(O2)11]SP
Description: Dual-point competition association assays were performed as prescribed previously, following the radioligand binding protocol of Nederpelt et al.[27].
Data from dual-point competition association assays were analyzed by dividing the specific binding at t1 (Bt1) with the specific binding at t2 (Bt2).1 KRI=Bt1/Bt2 Data from morphology and cAMP experiments were analyzed as described previously. […] Results were normalized to the maximal response induced by agonist without antagonist.

[8] = NKA after 0.07 nM antagonist, first 8 min
[9] = NKA after 0.21 nM antagonist, first 8 min
[10] = NKA after 0.7 nM antagonist, first 8 min
[11] = SP after 0.07 nM antagonist, first 8 min
[12] = SP after 0.21 nM antagonist, first 8 min
[13] = SP after 0.7 nM antagonist, first 8 min
[14] = NKA after 0.07 nM antagonist, normalized to NKA only
[15] = NKA after 0.21 nM antagonist, normalized to NKA only
[16] = NKA after 0.7 nM antagonist, normalized to NKA only
[17] = SP after 0.07 nM antagonist, normalized to SP only
[18] = SP after 0.21 nM antagonist, normalized to SP only
[19] = SP after 0.7 nM antagonist, normalized to SP only

## C[C@@H](O[C@H]1OCCN(Cc2n[nH]c(=O)[nH]2)[C@H]1c1ccc(F)cc1)c1cc(C(F)(F)F)cc(C(F)(F)F)c1 [Aprepitant, aprepitant]
[1]; [8]
  Onset of receptor activation, cAMP, NKA: 75 ± 13^NS RLU min^−1
[1]; [9]
  Onset of receptor activation, cAMP, NKA: 43 ± 7.7 RLU min^−1
[1]; [10]
  Onset of receptor activation, cAMP, NKA: 9.7 ± 1.6 RLU min^−1
[1]; [11]
  Onset of receptor activation, cAMP, SP: 94 ± 13 RLU min^−1
[1]; SP after 0.07 nM antagonist, normalized to SP only, read-out: Emax cAMP SP
  Emax: 62 ± 5.7%
[1]; [12]
  Onset of receptor activation, cAMP, SP: 63 ± 17 RLU min^−1
[1]; SP after 0.21 nM antagonist, normalized to SP only, read-out: Emax cAMP SP
  Emax: 55 ± 15%
[1]; [13]
  Onset of receptor activation, cAMP, SP: 36 ± 7 RLU min^−1
[1]; SP after 0.7 nM antagonist, normalized to SP only, read-out: Emax cAMP SP
  Emax: 19 ± 5.5%
[1]
  type of antagonism (insurmountability): fully insurmountable
[1]; antagonist pre-incubation, first 8 min
  decrease of onset of SP-induced cAMP production: up to 6 fold
[1]; first 8 min
  decrease of onset of NKA-induced cAMP production: 15 fold
[1]; cAMP assay
  decrease of potency of NKA: 10 fold
[1]; cAMP assay, highest antagonist concentration, read-out: decrease of Emax of SP in comparison to control
  Emax: > 80%
[1]; read-out: Emax cAMP NKA, NKA after 0.07 nM antagonist, normalized to NKA only
  Emax: 71 ± 13%
[1]; read-out: Emax cAMP NKA, NKA after 0.21 nM antagonist, normalized to NKA only
  Emax: 43 ± 19%
[1]; read-out: Emax cAMP NKA, NKA after 0.7 nM antagonist, normalized to NKA only
  Emax: 7.8 ± 4.2%
NK1 receptor [2]; NKA after 0.07 nM antagonist
  Onset of receptor activation, morphology, NKA: 0.05 ± 0.011^NS NCI min^−1
NK1 receptor [2]; NKA after 0.21 nM antagonist
  Onset of receptor activation, morphology, NKA: 0.03 ± 0.007^NS NCI min^−1
NK1 receptor [2]; NKA after 0.7 nM antagonist
  Onset of receptor activation, morphology, NKA: 0.006 ± 0.003 NCI min^−1
NK1 receptor [2]; SP after 0.07 nM antagonist
  Onset of receptor activation, morphology, SP: 0.05 ± 0.002^NS NCI min^−1
NK1 receptor [2]; SP after 0.21 nM antagonist
  Onset of receptor activation, morphology, SP: 0.04 ± 0.006^NS NCI min^−1
NK1 receptor [2]; SP after 0.7 nM antagonist
  Onset of receptor activation, morphology, SP: 0.009 ± 0.003 NCI min^−1
NK1 receptor [2]; U-251, SP after 0.07 nM antagonist, normalized to SP only, read-out: Emax morphology SP
  Emax: 96 ± 7.6%
NK1 receptor [2]; U-251, SP after 0.21 nM antagonist, normalized to SP only, read-out: Emax morphology SP
  Emax: 79 ± 5%
NK1 receptor [2]; U-251, SP after 0.7 nM antagonist, normalized to SP only, read-out: Emax morphology SP
  Emax: 53 ± 8.5%
NK1 receptor [2]; U-251, read-out: Emax morphology NKA, NKA after 0.07 nM antagonist, normalized to NKA only
  Emax: 97 ± 2.3%
NK1 receptor [2]; U-251, read-out: Emax morphology NKA, NKA after 0.21 nM antagonist, normalized to NKA only
  Emax: 79 ± 10%
NK1 receptor [2]; U-251, read-out: Emax morphology NKA, NKA after 0.7 nM antagonist, normalized to NKA only
  Emax: 30 ± 6.2%
NK1 receptor [2]
  decrease of onset of NKA-induced morphological changes: 8 fold
  decrease of onset of SP-induced impedance changes: 5 fold
  increase of EC50 value of NKA: 7 fold
NK1 receptor [3]
  receptor dissociation rate: 0.0054 min⁻¹

## Cc1ccccc1-c1cc(N2CCN(C)CC2)ncc1N(C)C(=O)C(C)(C)c1cc(C(F)(F)F)cc(C(F)(F)F)c1 [netupitant]
NK1 receptor [4]
  type of antagonism: insurmountable

## CSCC[C@H](NC(=O)[C@H](CC(C)C)NC(=O)CNC(=O)[C@@H](NC(=O)[C@H](Cc1ccccc1)NC(=O)[C@H](CO)NC(=O)[C@H](CC(=O)O)NC(=O)[C@@H](NC(=O)[C@H](CCCCN)NC(=O)[C@@H](N)Cc1c[nH]cn1)[C@@H](C)O)C(C)C)C(N)=O [NKA, neurokinin A]
NK1 receptor [5]
  Emax morphology NKA: 100 ± 0.44 %

## O=c1[nH]nc(CN2CCO[C@H](OCc3cc(C(F)(F)F)cc(C(F)(F)F)c3)[C@@H]2c2ccccc2)[nH]1 [L-742,694]
NK1 receptor [4]
  effect on Emax of SP after pre-incubation: clear decrease

## C[C@@H](O[C@H]1OCCN(Cc2n[nH]c(=O)[nH]2)[C@H]1c1ccccc1)c1cc(C(F)(F)F)cc(C(F)(F)F)c1 [DFA, desfluoro aprepitant]
NK1 receptor [6]
  pKi: 9.3 ± 0.04
NK1 receptor [7]
  KRI (kinetic rate index): 1.0 ± 0.13
[1]; [8]
  Onset of receptor activation, cAMP, NKA: 98 ± 29^NS RLU min^−1
[1]; [14]
  Emax cAMP NKA: 84 ± 18^NS %
[1]; [9]
  Onset of receptor activation, cAMP, NKA: 98 ± 33^NS RLU min^−1
[1]; [15]
  Emax cAMP NKA: 67 ± 10 %
[1]; [10]
  Onset of receptor activation, cAMP, NKA: 71 ± 22^NS RLU min^−1
[1]; [16]
  Emax cAMP NKA: 61 ± 15 %
[1]; [11]
  Onset of receptor activation, cAMP, SP: 125 ± 31^NS RLU min^−1
[1]; [17]
  Emax cAMP SP: 78 ± 4.5 %
[1]; [12]
  Onset of receptor activation, cAMP, SP: 120 ± 27^NS RLU min^−1
[1]; [18]
  Emax cAMP SP: 75 ± 7.7 %
[1]; [13]
  Onset of receptor activation, cAMP, SP: 158 ± 26^NS RLU min^−1
[1]; [19]
  Emax cAMP SP: 61 ± 10 %
[1]; SP after 30 min pre-incubation with 0.07 nM antagonist, read-out: EC50 cAMP SP
  EC50: 1.9 ± 0.5 nM
[1]; SP after 30 min pre-incubation with 0.21 nM antagonist, read-out: EC50 cAMP SP
  EC50: 2.7 ± 0.8 nM
[1]; SP after 30 min pre-incubation with 0.7 nM antagonist, read-out: EC50 cAMP SP
  EC50: 2.3 ± 0.7 nM
[1]
  type of antagonism (insurmountability): partially insurmountable
[1]; antagonist pre-incubation, then EC80 concentration of NKA, read-out: IC50 (cAMP)
  IC50: 0.26 ± 0.08 nM
[1]; antagonist pre-incubation, then EC80 concentration of SP, read-out: IC50 (cAMP assay)
  IC50: 0.15 ± 0.02 nM
[1]; first 8 min
  decrease of onset of NKA-induced cAMP production: did not significantly decrease
[1]; cAMP assay
  decrease of potency of NKA: did not affect
[1]; cAMP assay, highest antagonist concentration
  decrease of Emax of SP in comparison to control: 39%
[1]; read-out: EC50 cAMP NKA, NKA after 30 min pre-incubation with 0.07 nM antagonist
  EC50: 399 ± 19 nM
[1]; read-out: EC50 cAMP NKA, NKA after 30 min pre-incubation with 0.21 nM antagonist
  EC50: 304 ± 89 nM
[1]; read-out: EC50 cAMP NKA, NKA after 30 min pre-incubation with 0.7 nM antagonist
  EC50: 1080 ± 356 nM
NK1 receptor [2]; NKA after 0.07 nM antagonist
  Onset of receptor activation, morphology, NKA: 0.06 ± 0.005^NS NCI min^−1
NK1 receptor [2]; [14]
  Emax morphology NKA: 109 ± 7.6^NS %
NK1 receptor [2]; NKA after 0.21 nM antagonist
  Onset of receptor activation, morphology, NKA: 0.05 ± 0.007^NS NCI min^−1
NK1 receptor [2]; [15]
  Emax morphology NKA: 108 ± 6.7^NS %
NK1 receptor [2]; NKA after 0.7 nM antagonist
  Onset of receptor activation, morphology, NKA: 0.04 ± 0.014^NS NCI min^−1
NK1 receptor [2]; [16]
  Emax morphology NKA: 81 ± 8.9 %
NK1 receptor [2]; SP after 0.07 nM antagonist
  Onset of receptor activation, morphology, SP: 0.06 ± 0.006^NS NCI min^−1
NK1 receptor [2]; [17]
  Emax morphology SP: 97 ± 5.6^NS %
NK1 receptor [2]; SP after 0.21 nM antagonist
  Onset of receptor activation, morphology, SP: 0.05 ± 0.006^NS NCI min^−1
NK1 receptor [2]; [18]
  Emax morphology SP: 104 ± 4.2^NS %
NK1 receptor [2]; SP after 0.7 nM antagonist
  Onset of receptor activation, morphology, SP: 0.03 ± 0.005 NCI min^−1
NK1 receptor [2]; [19]
  Emax morphology SP: 82 ± 6.9 %
NK1 receptor [2]; SP after 30 min pre-incubation with 0.07 nM antagonist, read-out: EC50 morphology SP
  EC50: 0.053 ± 0.02 nM
NK1 receptor [2]; SP after 30 min pre-incubation with 0.21 nM antagonist, read-out: EC50 morphology SP
  EC50: 0.06 ± 0.015 nM
NK1 receptor [2]; SP after 30 min pre-incubation with 0.7 nM antagonist, read-out: EC50 morphology SP
  EC50: 3 ± 1.3 nM
NK1 receptor [2]; then EC80 concentration of NKA, read-out: IC50 (morphology)
  IC50: 0.12 ± 0.006 nM
NK1 receptor [2]; then EC80 concentration of SP, read-out: IC50 (morphology assay)
  IC50: 0.22 ± 0.1 nM
NK1 receptor [2]
  decrease of onset of NKA-induced morphological changes: did not significantly decrease
  decrease of onset of SP-induced impedance changes: less significant
  increase of EC50 value of NKA: 2 fold
NK1 receptor [2]; read-out: EC50 morphology NKA, NKA after 30 min pre-incubation with 0.07 nM antagonist
  EC50: 3 ± 0.52 nM
NK1 receptor [2]; read-out: EC50 morphology NKA, NKA after 30 min pre-incubation with 0.21 nM antagonist
  EC50: 3.3 ± 0.45 nM
NK1 receptor [2]; read-out: EC50 morphology NKA, NKA after 30 min pre-incubation with 0.7 nM antagonist
  EC50: 8.5 ± 0.46 nM
